The compounds below were run on ET (Huh-lucubineo-ET) cell line harboring I389luc-ubi-neo/NS3-3′/ET HCV replicon (assay: Replicon assay (HCV replicon, luciferase readout)). Conditions: Hepatitis C virus.
Format: cell-based
Method in brief: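 Compounds at 10-point 2-fold dilutions (overall 0.1 nM to […], 0.5% DMSO) were applied to ET cells carrying a luciferase-neo HCV replicon, seeded a day earlier. After 48-72 hours, luciferase-based % inhibition was fitted with a Hill equation for EC50, and parallel WST-1 readings gave TC50.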
`COc1ccc(NC2CCN(C(=O)c3nc4c(C(F)(F)F)cc(-c5ccoc5)cn4c3Cl)C2)cc1` (stereo not drawn) [Compound 180, (3-Chloro-6-furan-3-yl-8-trifluoromethyl-imidazo[1,2-a]pyridin-2-yl)-[3-(4-methoxy-phenylamino)-pyrrolidin-1-yl]-methanone] was tested, and the EC50 was 12.1 µM.
`CS(=O)(=O)N(CCO)C1CN(C(=O)c2nc3c(C(F)(F)F)cc(-c4ccoc4)cn3c2Cl)C1` [Compound 144, N-[1-(3-Chloro-6-furan-3-yl-8-trifluoromethyl-imidazo[1,2-a]pyridine-2-carbonyl)-azetidin-3-yl]-N-(2-hydroxy-ethyl)-methanesulfonamide] was tested, and the EC50 was 7.55 µM.
`COC(=O)C(CC(C)C)NC(=O)Cc1cn2cc(-c3ccoc3)cc(C(F)(F)F)c2n1` (stereo not drawn) [Compound 306, 2-[2-(6-Furan-3-yl-8-trifluoromethyl-imidazo[1,2-a]pyridin-2-yl)-acetylamino]-4-methyl-pentanoic acid methyl ester] showed an EC50 greater than 50 µM.
`COC(=O)C(CO)NC(=O)Cc1cn2cc(-c3ccoc3)cc(C(F)(F)F)c2n1` (stereo not drawn) [Compound 292, 2-[2-(6-Furan-3-yl-8-trifluoromethyl-imidazo[1,2-a]pyridin-2-yl)-acetylamino]-3-hydroxy-propionic acid methyl ester] was tested, and the EC50 was greater than 50 µM.
For `O=C(c1cc2nc(-c3cccs3)cc(C(F)(F)F)c2[nH]1)N1CC=C(c2ncccc2F)CC1` [Compound 117, (3-Fluoro-3′,6′-dihydro-2′H-[2,4′]bipyridinyl-1′-yl)-(5-thiophen-2-yl-7-trifluoromethyl-1H-pyrrolo[3,2-b]pyridin-2-yl)-methanone], the EC50 was 23.9 µM.
`CC(=O)NC(Cc1c[nH]c2ccccc12)C(=O)NCc1cn2cc(-c3ccoc3)cc(C(F)(F)F)c2n1` (stereo not drawn) [Compound 245, 2-Acetylamino-N-(6-furan-3-yl-8-trifluoromethyl-imidazo[1,2-a]pyridin-2-ylmethyl)-3-(1H-indol-3-yl)-propionamide] showed an EC50 greater than 50 µM.
`NC(=O)COC1CCN(C(=O)c2nc3c(C(F)(F)F)cc(-c4cn[nH]c4)cn3c2Cl)CC1` [Compound 182, 2-{1-[3-Chloro-6-(1H-pyrazol-4-yl)-8-trifluoromethyl-imidazo[1,2-a]pyridine-2-carbonyl]-piperidin-4-yloxy}-acetamide] showed an EC50 of 54.6 µM.
`O=C(c1nc2c(C(F)(F)F)cc(-c3ccoc3)cn2c1Cl)N1CCC(O)(c2ncccc2F)CC1` [Compound 222, (3-Chloro-6-furan-3-yl-8-trifluoromethyl-imidazo[1,2-a]pyridin-2-yl)-(3-fluoro-4′-hydroxy-3′,4′,5′,6′-tetrahydro-2′H-[2,4′]bipyridinyl-1′-yl)-methanone] was tested, and the EC50 was 0.624 µM.
Compound `O=C(NC(Cc1ccccc1)C(=O)O)c1cn2cc(-c3ccoc3)cc(C(F)(F)F)c2n1` (stereo not drawn) [Compound 286, 2-[(6-Furan-3-yl-8-trifluoromethyl-imidazo[1,2-a]pyridine-2-carbonyl)-amino]-3-phenyl-propionic acid] has an EC50 greater than 50 µM.
`O=C(c1nc2c(C(F)(F)F)cc(-c3ccoc3)cn2c1Cl)N1CC=C(c2cncc(F)c2)CC1` [Compound 203, (3-Chloro-6-furan-3-yl-8-trifluoromethyl-imidazo[1,2-a]pyridin-2-yl)-(5-fluoro-3′,6′-dihydro-2′H-[3,4′]bipyridinyl-1′-yl)-methanone] was tested, and the EC50 was 0.975 µM.
`O=C(c1nc2c(C(F)(F)F)cc(C3=CCCCC3)cn2c1Cl)N1CC=C(c2nccs2)C1` [Compound 217, (3-Chloro-6-cyclohex-1-enyl-8-trifluoromethyl-imidazo[1,2-a]pyridin-2-yl)-(3-thiazol-2-yl-2,5-dihydro-pyrrol-1-yl)-methanone] gave an EC50 of 0.0505 µM.
In the case of `CC(NC(=O)c1cn2cc(-c3ccoc3)cc(C(F)(F)F)c2n1)C(N)=O` (stereo not drawn) [Compound 277, 6-Furan-3-yl-8-trifluoromethyl-imidazo[1,2-a]pyridine-2-carboxylic acid (1-carbamoyl-ethyl)-amide], the EC50 is reported as greater than 50 µM.
Work on `NC(=O)CNC(=O)Cc1cn2cc(-c3ccoc3)cc(C(F)(F)F)c2n1` [Compound 300, N-Carbamoylmethyl-2-(6-furan-3-yl-8-trifluoromethyl-imidazo[1,2-a]pyridin-2-yl)-acetamide] yielded an EC50 greater than 50 µM.
In the case of `COC(=O)C1CCCN1C(=O)c1cn2cc(-c3ccoc3)cc(C(F)(F)F)c2n1` (stereo not drawn) [Compound 254, 1-(6-Furan-3-yl-8-trifluoromethyl-imidazo[1,2-a]pyridine-2-carbonyl)-pyrrolidine-2-carboxylic acid methyl ester], the EC50 is reported as greater than 50 µM.
`CN(C)C(=O)C1CCCN1C(=O)c1cn2cc(-c3ccoc3)cc(C(F)(F)F)c2n1` (stereo not drawn) [Compound 281, 1-(6-Furan-3-yl-8-trifluoromethyl-imidazo[1,2-a]pyridine-2-carbonyl)-pyrrolidine-2-carboxylic acid dimethylamide] gave an EC50 greater than 50 µM.
With `O=C(c1nc2c(C(F)(F)F)cc(-c3ccoc3)cn2c1Cl)N1CCC(NCC2CC2)CC1` [Compound 152, (3-Chloro-6-furan-3-yl-8-trifluoromethyl-imidazo[1,2-a]pyridin-2-yl)-[4-(cyclopropylmethyl-amino)-piperidin-1-yl]-methanone] the EC50 was 19 µM.
`NC(=O)[C@H](CO)NC(=O)Cc1cn2cc(-c3ccoc3)cc(C(F)(F)F)c2n1` (stereo in doubt) [Compound 298, 2-[2-(6-Furan-3-yl-8-trifluoromethyl-imidazo[1,2-a]pyridin-2-yl)-acetylamino]-3-hydroxy-propionamide] showed an EC50 greater than 50 µM.
`N#CCc1cn2cc(-c3ccoc3)cc(C(F)(F)F)c2n1` [Compound 236, (6-Furan-3-yl-8-trifluoromethyl-imidazo[1,2-a]pyridin-2-yl)-acetonitrile] was tested, and the EC50 was greater than 50 µM.
For `NC(=O)CNC(=O)c1cn2cc(-c3ccoc3)cc(C(F)(F)F)c2n1` [Compound 247, 6-Furan-3-yl-8-trifluoromethyl-imidazo[1,2-a]pyridine-2-carboxylic acid carbamoylmethyl-amide], the EC50 was greater than 50 µM.
`O=C(c1nc2c(C(F)(F)F)cc(-c3cn[nH]c3)cn2c1Cl)N1CC=C(c2cc[nH]n2)C1` [Compound 137, [3-Chloro-6-(1H-pyrazol-4-yl)-8-trifluoromethyl-imidazo[1,2-a]pyridin-2-yl]-[3-(1H-pyrazol-3-yl)-2,5-dihydro-pyrrol-1-yl]-methanone] showed an EC50 greater than 50 µM.
`FC(F)(F)c1cc(-c2ccoc2)cn2cc(Cc3nc(Cc4ccccc4)no3)nc12` [Compound 230, 2-(3-Benzyl-[1,2,4]oxadiazol-5-ylmethyl)-6-furan-3-yl-8-trifluoromethyl-imidazo[1,2-a]pyridine] gave an EC50 greater than 50 µM.
`NC(=O)C1CCCN1C(=O)c1nc2c(C(F)(F)F)cc(-c3ccoc3)cn2c1Cl` (stereo not drawn) [Compound 237, 1-(3-Chloro-6-furan-3-yl-8-trifluoromethyl-imidazo[1,2-a]pyridine-2-carbonyl)-pyrrolidine-2-carboxylic acid amide] gave an EC50 greater than 50 µM.
With `CS(=O)(=O)NC1CN(C(=O)c2nc3c(C(F)(F)F)cc(-c4cccnc4)cn3c2Cl)C1` [Compound 142, N-[1-(3-Chloro-6-pyridin-3-yl-8-trifluoromethyl-imidazo[1,2-a]pyridine-2-carbonyl)-azetidin-3-yl]-methanesulfonamide] the EC50 was 1.94 µM.
`O=C(c1nc2c(C(F)(F)F)cc(-c3cn[nH]c3)cn2c1Cl)N1CC=C(c2ccccc2F)C1` [Compound 103, [3-Chloro-6-(1H-pyrazol-4-yl)-8-trifluoromethyl-imidazo[1,2-a]pyridin-2-yl]-[3-(2-fluoro-phenyl)-2,5-dihydro-pyrrol-1-yl]-methanone] gave an EC50 of 0.0389 µM.

— patent US20100204265A1 (priority 2009, published 2010)
